This passage reports Ki or IC50 activity class and melting point results from patent US8802664B2 (Bioproject, priority 2010, dated 2014).

In series [1] the target is T1, human H4 receptor (Homo sapiens, UniProt Q9H3N8).
T1 construct: expressed in transfected cells
Nature of the series: [3H]Histamine binding on membranes of CHO cells stably expressing human H4 receptor. Put shortly:
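Membranes from sub-confluent CHO-hH4 cells, 20 μg protein per well, were incubated in 50 mM Tris/HCl, 0.5 mM EDTA, pH 7.4. Nonspecific binding was defined with 10 μM JNJ 7777120. Bound radioactivity was collected on PEI-soaked GF/B filters and counted by liquid scintillation.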

T1 sequence (Q9H3N8 whole entry): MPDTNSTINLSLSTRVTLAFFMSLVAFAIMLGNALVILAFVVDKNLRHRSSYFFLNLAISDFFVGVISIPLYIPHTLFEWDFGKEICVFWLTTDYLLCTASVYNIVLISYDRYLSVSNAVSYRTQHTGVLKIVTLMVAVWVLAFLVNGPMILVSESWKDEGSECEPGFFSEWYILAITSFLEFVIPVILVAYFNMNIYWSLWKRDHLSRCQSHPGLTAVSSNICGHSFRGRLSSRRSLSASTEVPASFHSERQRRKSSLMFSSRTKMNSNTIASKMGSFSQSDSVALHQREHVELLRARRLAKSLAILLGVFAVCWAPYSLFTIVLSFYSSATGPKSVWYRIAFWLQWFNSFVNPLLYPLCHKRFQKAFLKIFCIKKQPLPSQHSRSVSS

`CN1CCC(OC(c2cccc(C#CCCCN)c2)c2nc3ccccc3[nH]2)CC1` (single isomer, unassigned) [Example 566, 5-{3-[(1H-benzimidazol-2-yl)(1-methylpiperidin-4-yloxy)methyl]phenyl}pent-4-ynylamine]: the melting point (commonly the temperature of the solid-liquid transition) was 82 °C. For the same molecule, the Ki or IC50 activity class in series [1] was below 30 nM.
The molecule `CN1CCC(OC(c2nc3ccccc3[nH]2)c2cc(C(C)(C)c3ccccc3)ccc2O)CC1` (stereo not drawn) [Example 604] yielded a melting point of 130 °C. In addition, the Ki or IC50 activity class in series [1] was below 300 nM.
For `CN1CCC(OC(c2cccc(SCCNc3c(N)c(=O)c3=O)c2)c2nc3ccccc3[nH]2)CC1` (stereo not drawn) [Example 385, 3-amino-4-(2-{3-[(1H-benzimidazol-2-yl)(1-methylpiperidin-4-yloxy)methyl]phenylsulfanyl}ethylamino)-cyclobut-3-ene-1,2-dione], the melting point worked out at 161 °C. For the same molecule, the Ki or IC50 activity class in series [1] was below 300 nM.
The like results for `CN1CCC(OC(c2cccc(SCC3=NCCN3)c2)c2nc3ccccc3[nH]2)CC1` (stereo not drawn) [Example 468, 2-[[3-(4,5-dihydro-1H-imidazol-2-ylmethylsulfanyl)phenyl](1-methylpiperidin-4-yloxy)methyl]-1H-benzimidazole] were, in that order, 62 °C and below 300 nM.
The like results for `CN1CCC(OC(c2cccc(SCCCN)c2)c2nc3ccccc3[nH]2)CC1` (stereo not drawn) [Example 368, 3-{3-[(1H-benzimidazol-2-yl)(1-methylpiperidin-4-yloxy)methyl]phenylsulfanyl}propylamine] were, in that order, 126 °C and below 30 nM.
As for `CN1CCC(OC(c2cccc(SCCNC(N)=O)c2)c2nc3ccccc3[nH]2)CC1` (stereo not drawn) [Example 298, (2-{3-[(1H-benzimidazol-2-yl)(1-methylpiperidin-4-yloxy)methyl]phenylsulfanyl}ethyl)urea], the melting point was found to be 136 °C. Moreover, in series [1], the Ki or IC50 activity class is below 1000 nM.
`CN1CCC(OC(c2cccc(OCCCN)c2)c2nc3ccccc3[nH]2)CC1` (stereo not drawn) [Example 327, 3-{3-[(1H-benzimidazol-2-yl)(1-methylpiperidin-4-yloxy)methyl]phenoxy}propylamine] displayed a melting point of 97 °C. The same molecule returned a Ki or IC50 activity class in series [1] below 300 nM.
`CN1CCC(OC(c2cccc(OCCCCCN3CCN(C(=O)OC(C)(C)C)CC3)c2)c2nc3ccccc3s2)CC1` (stereo not drawn) [Example 362, 4-(5-{3-[benzothiazol-2-yl(1-methylpiperidin-4-yloxy)methyl]phenoxy}pentyl)piperazine-1-carboxylic acid tert-butyl ester]: the melting point came out at 131 °C. The molecule also displayed a Ki or IC50 activity class in series [1] below 1000 nM.
On to `CN1CCC(OC(c2nc3ccccc3[nH]2)c2ccccc2OC(F)(F)F)CC1` (stereo not drawn) [Example 251, 2-[(1-methylpiperidin-4-yloxy)(2-trifluoromethoxy-phenyl)methyl]-1H-benzimidazole], for which the melting point is 193 °C. In series [1], this molecule yielded a Ki or IC50 activity class below 1000 nM.
Regarding `CN1CCC(OC(c2nc3ccccc3[nH]2)c2cccc(OC(F)(F)F)c2O)CC1` (stereo not drawn) [Example 620], the melting point was 126 °C. The molecule further had a Ki or IC50 activity class in series [1] below 30 nM.
`Cc1cc(O)c(C(OC2CCN(C)CC2)c2nc3ccccc3[nH]2)c(F)c1` (stereo not drawn) [Example 593] returned a melting point of 136 °C. Besides, the Ki or IC50 activity class in series [1] is below 30 nM.
`CN1CCC(OC(c2cccc(CCC3CNC3)c2)c2nc3ccccc3[nH]2)CC1` (stereo not drawn) [Example 392, 2-[[3-(2-azetidin-3-ylethyl)phenyl](1-methylpiperidin-4-yloxy)methyl]-1H-benzimidazole] had a melting point of 146 °C. Also, the Ki or IC50 activity class in series [1] is below 1000 nM.
On to `CN1CCC(OC(c2cccc(O)c2)c2nc3ccccc3s2)CC1` (stereo not drawn) [Example 62, 3-[benzothiazol-2-yl(1-methylpiperidin-4-yloxy)methyl]phenol], for which the melting point came out at 201 °C. In series [1], the Ki or IC50 activity class was below 30 nM.
As to `CN1CCC(OC(c2cccc(N)c2)c2nc3ccccc3[nH]2)CC1` (stereo not drawn) [Example 224, 3-[(1H-benzimidazol-2-yl)(1-methylpiperidin-4-yloxy)methyl]phenylamine], the melting point came to 100 °C. The molecule also returned a Ki or IC50 activity class in series [1] below 300 nM.
`CN1CCC(OC(c2nc3ccccc3[nH]2)c2cc(Br)ccc2F)CC1` (stereo not drawn) [Example 555] registered a melting point of 232 °C. For the same molecule, the Ki or IC50 activity class in series [1] is below 30 nM.
For `COc1ccc(-c2cccc(C(OC3CCN(C)CC3)c3nc4ccccc4[nH]3)c2)cc1` (stereo not drawn) [Example 183, 2-[(4′-methoxybiphenyl-3-yl)(1-methylpiperidin-4-yloxy)methyl]-1H-benzimidazole], the melting point is 92 °C. In series [1], the Ki or IC50 activity class was below 300 nM.
The molecule `CN1CCC(OC(c2nc3ccccc3[nH]2)c2cc(Cl)ccc2O)CC1` (stereo not drawn) [Example 569] had a melting point of 185 °C. This molecule also yielded a Ki or IC50 activity class in series [1] below 30 nM.
`CN1CCC(OC(c2cccc(C#CC3CCCNC3)c2)c2nc3ccccc3[nH]2)CC1` (stereo not drawn) [Example 380, 2-[(1-methylpiperidin-4-yloxy)(3-piperidin-3-ylethynylphenyl)methyl]-1H-benzimidazole] showed a melting point of 97 °C. In series [1], this molecule had a Ki or IC50 activity class below 300 nM.
`CN1CCC(NC(c2cccc(OCCCCN)c2)c2nc3ccccc3s2)CC1` (stereo not drawn) [Example 387, {[3-(4-aminobutoxy)phenyl]benzothiazol-2-yl-methyl}(1-methylpiperidin-4-yl)amine] came in with a melting point of 67 °C. For the same molecule, the Ki or IC50 activity class in series [1] was below 30 nM.
`COc1ccc(O)c(C(OC2CCN(C)CC2)c2nc3ccccc3[nH]2)c1` (stereo not drawn) [Example 573] showed a melting point of 146 °C. Further, in series [1], the Ki or IC50 activity class is below 300 nM.
The molecule `CN1CCC(OC(c2ccccc2)c2nc3cc(Br)ccc3[nH]2)CC1` (stereo not drawn) [Example 170, 5-bromo-2-[(1-methylpiperidin-4-yloxy)phenylmethyl]-1H-benzimidazole] came in with a melting point of 143 °C. For the same molecule, the Ki or IC50 activity class in series [1] was below 300 nM.
`Cc1ccc(C(OC2CCN(C)CC2)c2nc3ccccc3[nH]2)cc1F` (stereo not drawn) [Example 554] came in with a melting point of 92 °C. The molecule also had a Ki or IC50 activity class in series [1] below 300 nM.
Turning to `CCCOc1cccc(C(NC2CCN(C)CC2)c2nc3ccccc3s2)c1` (stereo not drawn) [Example 42, [benzothiazol-2-yl(3-propoxyphenyl)methyl](1-methylpiperidin-4-yl)amine], the melting point is 90 °C. Also, in series [1], the Ki or IC50 activity class is below 30 nM.
Molecule `CC(C)Oc1cccc(C(NC2CCN(C)CC2)c2nc3ccccc3[nH]2)c1` (stereo not drawn) [Example 77, [(1H-benzimidazol-2-yl)(3-isopropoxyphenyl)methyl](1-methylpiperidin-4-yl)amine] had a melting point of 75 °C. In series [1], the Ki or IC50 activity class was below 300 nM.
In the case of `CN1CCC(OC(c2cccc(-c3ccc4c(c3)OCO4)c2)c2nc3ccccc3[nH]2)CC1` (stereo not drawn) [Example 184, 2-[(3-benzo[1,3]dioxol-5-ylphenyl)(1-methylpiperidin-4-yloxy)methyl]-1H-benzimidazole], the melting point is 95 °C. Further, in series [1], the Ki or IC50 activity class was below 300 nM.
As to `CC(O)CSc1cccc(C(OC2CCN(C)CC2)c2nc3ccccc3[nH]2)c1` (stereo not drawn) [Example 247, 1-{3-[(1H-benzimidazol-2-yl)(1-methylpiperidin-4-yloxy)methyl]phenylsulfanyl}propan-2-ol], the melting point was in the range of 120 to 122 °C. The Ki or IC50 activity class in series [1] is below 300 nM.
The like results for `CN1CCC(NC(c2cccc(OC3CCCCO3)c2)c2nc3ccccc3[nH]2)CC1` (stereo not drawn) [Example 120, {(1H-benzimidazol-2-yl)[3-(tetrahydropyran-2-yloxy)phenyl]methyl}(1-methylpiperidin-4-yl)amine] were, in that order, 97 °C and below 1000 nM.
With `CN1CCC(NC(c2cccc(C(F)(F)F)c2)c2nc3ccccc3[nH]2)CC1` (stereo not drawn) [Example 59, [(1H-benzimidazol-2-yl)(3-trifluoromethylphenyl)methyl](1-methylpiperidin-4-yl)amine], the melting point amounted to 90 °C. Moreover, the Ki or IC50 activity class in series [1] is below 30 nM.
For `CN1CCC(NC(c2cccc([N+](=O)[O-])c2)c2nc3ccccc3[nH]2)CC1` (stereo not drawn) [Example 131, [(1H-benzimidazol-2-yl)(3-nitrophenyl)methyl](1-methylpiperidin-4-yl)amine], in that order: 254 °C and below 300 nM.
`CN1CCC(OC(c2cccc(C#CC3CNC3)c2)c2nc3ccccc3[nH]2)CC1` (stereo not drawn) [Example 388, 2-[(3-azetidin-3-ylethynylphenyl)(1-methylpiperidin-4-yloxy)methyl]-1H-benzimidazole] gave a melting point of 131 °C. In series [1], the Ki or IC50 activity class was below 1000 nM.
`CN1CCC(OC(c2nc3ccccc3s2)c2cccc3ccccc23)CC1` (stereo not drawn) [Example 17, 2-[(1-methylpiperidin-4-yloxy)naphthalen-1-ylmethyl]benzothiazole] came in with a melting point of 106.5 °C. In series [1], this molecule came in with a Ki or IC50 activity class below 1000 nM.
For `CCCOc1ccc(O)c(C(OC2CCN(C)CC2)c2nc3ccccc3[nH]2)c1` (stereo not drawn) [Example 603], in that order: 120 °C and below 300 nM.
For `CN1CCC(OC(c2cccc(-c3ccc(C(F)(F)F)cc3)c2)c2nc3ccccc3[nH]2)CC1` (stereo not drawn) [Example 119, 2-[(1-methylpiperidin-4-yloxy)(4′-trifluoromethylbiphenyl-3-yl)methyl]-1H-benzimidazole], the melting point was 95 °C. In series [1], this molecule returned a Ki or IC50 activity class below 300 nM.
`CN1CCC(OC(c2nc3ccccc3[nH]2)c2c(O)cccc2F)CC1` (stereo not drawn) [Example 582] returned a melting point of 129 °C. The molecule also had a Ki or IC50 activity class in series [1] below 30 nM.
`CN1CCC(OC(c2nc3ccccc3[nH]2)c2cc(OC(F)(F)F)ccc2O)CC1` (stereo not drawn) [Example 571] returned a melting point of 132 °C. The Ki or IC50 activity class in series [1] was below 30 nM.
`CCOc1ccc(O)c(C(OC2CCN(C)CC2)c2nc3ccccc3[nH]2)c1` (stereo not drawn) [Example 576] gave a melting point of 213 °C. This molecule also came in with a Ki or IC50 activity class in series [1] below 30 nM.
